Assay results published in ChEMBL document CHEMBL1145989, “Development of a water-soluble matrix metalloproteinase inhibitor as an intra-arterial infusion drug for prevention of restenosis after angioplasty” (J Med Chem, 2003).

Legend:
[1] = molecular target: Matrix metalloproteinase-9 (Homo sapiens, UniProt P14780); experiment: Inhibition of human Matrix metalloprotease-9 (MMP-9)
[2] = molecular target: 72 kDa type IV collagenase (Homo sapiens, UniProt P08253); experiment: Inhibition of human Matrix metalloprotease-2 (MMP-2)
[3] = molecular target: Macrophage metalloelastase (Homo sapiens, UniProt P39900); experiment: Inhibition of human Matrix metalloprotease-12 (MMP-12)
Macrophage metalloelastase, sequence (P39900 whole entry): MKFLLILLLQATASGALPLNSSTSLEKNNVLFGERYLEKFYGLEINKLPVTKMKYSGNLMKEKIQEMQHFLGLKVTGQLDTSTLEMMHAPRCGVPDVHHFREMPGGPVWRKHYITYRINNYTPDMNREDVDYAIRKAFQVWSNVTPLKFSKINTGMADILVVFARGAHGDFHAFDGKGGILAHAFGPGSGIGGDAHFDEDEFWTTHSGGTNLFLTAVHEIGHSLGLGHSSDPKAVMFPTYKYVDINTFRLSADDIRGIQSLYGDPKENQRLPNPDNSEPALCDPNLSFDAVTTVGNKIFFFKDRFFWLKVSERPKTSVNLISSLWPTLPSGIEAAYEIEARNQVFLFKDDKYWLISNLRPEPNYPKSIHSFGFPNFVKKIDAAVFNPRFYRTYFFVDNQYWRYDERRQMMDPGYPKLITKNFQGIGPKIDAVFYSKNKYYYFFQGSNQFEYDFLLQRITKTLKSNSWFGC

72 kDa type IV collagenase, sequence (P08253 whole entry): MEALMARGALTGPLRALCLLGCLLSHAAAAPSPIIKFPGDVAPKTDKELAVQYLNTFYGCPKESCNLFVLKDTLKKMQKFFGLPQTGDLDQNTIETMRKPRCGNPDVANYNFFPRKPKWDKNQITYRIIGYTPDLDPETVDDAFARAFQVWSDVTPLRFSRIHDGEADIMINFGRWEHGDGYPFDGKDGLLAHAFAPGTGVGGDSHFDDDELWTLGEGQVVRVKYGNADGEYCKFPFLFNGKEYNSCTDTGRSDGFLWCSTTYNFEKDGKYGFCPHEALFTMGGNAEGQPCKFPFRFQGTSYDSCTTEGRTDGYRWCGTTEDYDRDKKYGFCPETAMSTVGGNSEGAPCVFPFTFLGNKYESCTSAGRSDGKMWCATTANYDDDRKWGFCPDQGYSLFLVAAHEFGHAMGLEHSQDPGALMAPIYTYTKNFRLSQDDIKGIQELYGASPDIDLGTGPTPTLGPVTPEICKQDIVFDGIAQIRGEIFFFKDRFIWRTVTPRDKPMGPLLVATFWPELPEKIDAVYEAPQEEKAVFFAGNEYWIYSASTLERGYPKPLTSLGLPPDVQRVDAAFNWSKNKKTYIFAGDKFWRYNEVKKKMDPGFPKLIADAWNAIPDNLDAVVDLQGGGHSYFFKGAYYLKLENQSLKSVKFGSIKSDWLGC
Matrix metalloproteinase-9, sequence (P14780 whole entry): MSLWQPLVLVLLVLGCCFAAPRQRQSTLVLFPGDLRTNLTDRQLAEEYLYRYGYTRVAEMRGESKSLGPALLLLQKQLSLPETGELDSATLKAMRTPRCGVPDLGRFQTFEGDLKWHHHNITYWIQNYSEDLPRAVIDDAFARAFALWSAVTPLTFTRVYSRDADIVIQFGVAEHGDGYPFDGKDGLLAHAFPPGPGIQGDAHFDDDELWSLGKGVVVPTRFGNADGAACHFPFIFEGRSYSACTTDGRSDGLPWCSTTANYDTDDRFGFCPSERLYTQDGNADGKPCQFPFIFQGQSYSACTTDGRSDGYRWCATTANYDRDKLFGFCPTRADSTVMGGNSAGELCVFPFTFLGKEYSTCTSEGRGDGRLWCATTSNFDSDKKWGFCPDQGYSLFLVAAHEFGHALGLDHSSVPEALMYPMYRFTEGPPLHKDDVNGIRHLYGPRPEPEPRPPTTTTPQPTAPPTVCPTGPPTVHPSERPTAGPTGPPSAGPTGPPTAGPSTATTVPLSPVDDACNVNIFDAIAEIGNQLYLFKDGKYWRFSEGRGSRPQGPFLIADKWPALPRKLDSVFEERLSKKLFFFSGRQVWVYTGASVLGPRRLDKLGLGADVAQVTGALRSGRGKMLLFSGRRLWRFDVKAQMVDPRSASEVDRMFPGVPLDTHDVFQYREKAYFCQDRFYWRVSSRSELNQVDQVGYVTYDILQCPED

IC50 [1] [nM] | IC50 [2] [nM] | IC50 [3] [nM] | SMILES
2.8 | 1.1 | 2.6 | C[C@@H](C[C@@H](COC(=O)CCC(=O)O)NC(=O)c1ccc(Oc2ccccc2)cc1)C(=O)NO
0.8 | 0.65 | 3.5 | C[C@@H](C[C@@H](CO)NC(=O)c1ccc(Oc2ccccc2)cc1)C(=O)NO
